Patent EP0361645B1, “Organic hydrazine derivatives for pharmaceutical use” (ROHM AND HAAS COMPANY, priority 1988, dated 1990)

Columns and labels:
helminths = settings: stated as known; cited from earlier work
[1] = Hemolymph titers of 14C-Example No. 3 in L5 hornworms after feeding; format: in vivo, M. sexta
[2] = tested on: ligated M. sexta abdomens (L4D1); assay: Onset of molting in ligated L4D1 M. sexta abdomens (injection); format: in vivo; settings: injected into L4D1 abdomens
Experimental: L4D1 means fourth instar, first day after molting. L4 animals 36 hours after ecdysis were ligated, decapitated and next day injected with varying doses of compound in 1 - 2 ul DMSO. They were scored as follows: 0 = normal L4 abdomens with no L5 crochets or spiracle apolysis; 1 = exposed dorsal vessel (response to moderate levels of molting hormone in the presence of low JH levels); 2 = L5 crochets formed but no spiracle apolysis; 3 = L5 crochets formed and mild spiracle apolysis; 4 = strong molting response, both L5 crochets and spiracle cuticle synthesized. These methods are an adaptation of the method of J. W. Truman, L. M. Riddiford, L. Safranek, 39 Dev. Biol 247 (1974). Injection and scoring of L5D3 abdomens (weighing 6.5 - 7.5 g) are also adaptations of previous methods in H. F. Nijhout, 22 J. Insect Physiol. 453 (1976). […] Animals were held over moistened filter paper at 25 ° C and were scored after three days. […] For both L4 and L5 abdomens, 50% effective doses were determined by plotting the mean score for all individuals vs. dose, then determining the dose which gives a score of 2.0 and 1.5 respectively. Intact L5D0 hornworms were either allowed to feed on treated commercial black cutworm diet or injected into a proleg and scored after 48 hours. The 50% effective dose was calculated by plotting percentage of the population bearing a prematurely apolysed head capsule vs. dose. […]

M. sexta = assay: Hemolymph ecdysteroid titers (radioimmunoassay) and weight gain of fourth instar M. sexta fed compound in artificial diet; format: in vivo, Manduca sexta
Experimental: The invention will now be further described by way of exemplification and by reference to the drawings in which; • Figure 1. Both 20-hydroxyecdysone and Example No. 3 induce process elaboration (A) and inhibition of cell proliferation (B) in Kr cells in a dose-dependent manner. Initial cell density was 2 X 10^6 cells/ml; after incubation of 1 ml aliquots of the cells with the compound for 48 hours the cells were triturated gently and the percentage of cells responding (with processes longer than approximately 17 um, see Cherbas et al. 189 Wilhelm Roux's Arch. 1 (1980)) and total cell density was determined by hemocytom- eter counting, relative to ethanol (1 ul)-treated controls. Determinations were in triplicate for each dose. […] Induction of acetylcholinesterase by varying concentrations of 20-hydroxyecdysone and Example No. 3. Kr cells at an initial density of 3 X 10^6 cells/ml (10 ml per sample) were incubated with the agonist for three days. After harvesting, by centrifugation at 3000 X g, the cell pellets were washed with Robb's Drosophila saline (18, 2 X 5 ml) at 4 ° C, then lysed by sonication in 1 ml of phosphate buffer (pH 7.4, I = 0.1 M) containing 0.5 M NaCI, 0.25 M EDTA and 0.5% TRITON? X-100. See Cherbas, 197 Science 275 (1977). Triton is a registered trademark of Rohm and Haas Company for a alkylaryl polyoxyethylene glycol surfactant. After centrifugation at 16,000 X g, the supernatants were assayed for acetylcholinesterase activity by an adaptation of the method of Ellman et al., 7 Biochem. Pharmacol. 88 (1961), by subtracting out any 412 nm absorbance observed in incubations in the presence of 2 X 10-5 eserine sulfate. Thus reaction mixtures contained 50 ul of enzyme extract, 20 ul eserine (blank tubes only) and 1.0 ml of 0.5 mM acetylthiocholine, 0.3 mM dithiobisnitrobenzoic acid in phosphate buffer (pH 7.4, I = 0.1 M). Incubations were at 25 ° C for two hours; reactions in active tubes were terminated by addition of eserine. Absorbance at 412 nm was then measured. Protein concentration in extracts was measured by the Biorad method. […] Scatchard plot of ^3H-ponasterone A binding to Kr cell cytosolic receptor extracts in the presence of differing concentrations of Example No. 3. Cytosolic extract preparation and ecdysteroid receptor assays were essentially as described in Sage, 111 Meth. in Enzymol. 458 (1985). Example No. 3 was added in 1 ul DMSO to 50 ul of radioligand in 10 mM Tris buffer (pH 7.2) and 50 ul of undiluted cytosol extract. After incubation overnight at 0.5 ° C, bound label was separated from free by addition of 300 ul 1% HCI-washed charcoal (Sigma) and 0.1% Dextran T70 (Pharmacia) in Tris buffer, centrifugation (13,000 X g, 3 min, 4 ° C) and liquid scintillation counting of a 300 ul aliquot of the supernatant in 15 ml Hydrofluor (National Diagnostics). Points are means of duplicate determinations. […] Relative ability of 20 hydroxyecdysone and Example No. 3 to displace ^3H-ponasterone A from cytosolic receptor extracts. Conditions were as in Figure 3 except that only 0.5 nM ponasterone A was used. • Points are means of duplicate determinations. For 20-hydroxyecdysone EC50 = 0.1 uM while for Example No. 3 EC50 = 3.0 uM. Control binding = 10 femtomoles ^3H-ponasterone A bound per mg cytosol protein. • Figure 4. […] Ecdysteroid titers were measured by a radioimmunoassay adapted from Warren et al., 40 Experientia 393 (1984) with Protein A-Staph. aureus suspension (Sigma) used as the reagent to separate bound from free ligand. […]

antiecdysone antiserum = assay: Binding by antiecdysone antiserum (radioimmunoassay)
Experimental: The invention will now be further described by way of exemplification and by reference to the drawings in which; • Figure 1. Both 20-hydroxyecdysone and Example No. 3 induce process elaboration (A) and inhibition of cell proliferation (B) in Kr cells in a dose-dependent manner. Initial cell density was 2 X 10^6 cells/ml; after incubation of 1 ml aliquots of the cells with the compound for 48 hours the cells were triturated gently and the percentage of cells responding (with processes longer than approximately 17 um, see Cherbas et al. 189 Wilhelm Roux's Arch. 1 (1980)) and total cell density was determined by hemocytom- eter counting, relative to ethanol (1 ul)-treated controls. Determinations were in triplicate for each dose. […] Induction of acetylcholinesterase by varying concentrations of 20-hydroxyecdysone and Example No. 3. Kr cells at an initial density of 3 X 10^6 cells/ml (10 ml per sample) were incubated with the agonist for three days. After harvesting, by centrifugation at 3000 X g, the cell pellets were washed with Robb's Drosophila saline (18, 2 X 5 ml) at 4 ° C, then lysed by sonication in 1 ml of phosphate buffer (pH 7.4, I = 0.1 M) containing 0.5 M NaCI, 0.25 M EDTA and 0.5% TRITON? X-100. See Cherbas, 197 Science 275 (1977). Triton is a registered trademark of Rohm and Haas Company for a alkylaryl polyoxyethylene glycol surfactant. After centrifugation at 16,000 X g, the supernatants were assayed for acetylcholinesterase activity by an adaptation of the method of Ellman et al., 7 Biochem. Pharmacol. 88 (1961), by subtracting out any 412 nm absorbance observed in incubations in the presence of 2 X 10-5 eserine sulfate. […] Absorbance at 412 nm was then measured. Protein concentration in extracts was measured by the Biorad method. […] Ecdysteroid titers were measured by a radioimmunoassay adapted from Warren et al., 40 Experientia 393 (1984) with Protein A-Staph. aureus suspension (Sigma) used as the reagent to separate bound from free ligand. […]

[3] = L4 M. sexta, 10 ppm in artificial diet

| SMILES | control of helminths (helminths) | peak hemolymph concentration relative to concentrations required for a 50% response in Kr cell process elaboration and ^3H-ponasterone A displacement ([1]; 10 ug/g oral dose) | concentration at 36 h ([1]; tobacco hornworm, hemolymph, po, 10 ug/g in diet, for at least 36 hours thereafter, read-out: residual hemolymph level) | Cmax at 6 h ([1]; tobacco hornworm, hemolymph, po, L5D0 larvae, 10 ug/g in diet, at six hours after the initiation of feeding, read-out: peak hemolymph concentration) | fold more potent than 20-hydroxyecdysone [2] | ecdysone titers relative to control levels (M. sexta; L4D0 animals, within four hours after the initiation of feeding) | outcome of the molt (M. sexta; L4 M. sexta treated larvae) | feeding and weight gain (M. sexta; [3]) | immunoreactive ecdysone titers (M. sexta; [3]) | time to head capsule slippage (M. sexta; [3]) | binding by antiecdysone antiserum (antiecdysone antiserum; 1 X 10^-4 M) | fold lower binding affinity than 20-hydroxyecdysone (antiecdysone antiserum; antiecdysone antiserum) |
| --- | --- | --- | --- | --- | --- | --- | --- | --- | --- | --- | --- | --- |
| CC(C)(O)CC[C@@H](O)[C@](C)(O)[C@H]1CC[C@@]2(O)C3=CC(=O)[C@@H]4C[C@@H](O)[C@@H](O)C[C@]4(C)[C@H]3CC[C@]12C [20-hydroxyecdysone, reference compound] | controls helminths | – | – | – | – | – | – | – | – | – | – | – |
| CC(C)(C)N(NC(=O)c1ccccc1)C(=O)c1ccccc1 [Example No. 3, N'-t-butyl-N,N'-dibenzoylhydrazine] | – | 3 to 5 fold | ~3 µM | 16 µM | 30 fold | significantly depressed | eventually died without completing the molt | further feeding and weight gain ceases | without any elevation of ecdysone titers | 24 h | not significantly bound | > 3125 fold |
